Consider 16 compounds from PubChem BioAssay (NCI).

Assay in all cases: NCI-60 cell line screen, 48 h
Assay [1] relates to MCF7 breast.
The subject of assay [2] is NCI-H460 lung.
Assay [3] concerns K-562 leukemia.
Assay [4] relates to HS 578T breast.
The test system of assay [5] is U251 CNS.
Assay [6] concerns RPMI-8226 leukemia.
Assay [7] relates to IGROV1 ovarian.
The test system of assay [8] is OVCAR-8 ovarian.
Assay [9] deals with NCI-H226 lung.
For assay [10], the system named is SNB-75 CNS.
Assay [11] concerns UACC-62 melanoma.
Assay [12] relates to A498 renal.
Assay [13] concerns MDA-MB-231 breast.
For assay [14], the system named is M14 melanoma.
Assay [15] has as its system SK-MEL-5 melanoma.
Assay [16] concerns NCI-H522 lung.
For assay [17], the system named is HL-60(TB) leukemia.
Assay [18] deals with CCRF-CEM leukemia.
In assay [19] the test system is HOP-92 NSCLC.

SMILES strings stand for the structures.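 Cultured in 96-well plates, cells were exposed to test compound for 48 hours across five concentrations. Definition used: TGI = concentration required for complete inhibition of growth.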 Where a SMILES comes first, the peptide text is derived from it. The star is where a group is joined. Fmoc = O=C(OCC1c2ccccc2-c2ccccc21)*; Boc = CC(C)(C)OC(=O)* A value given as a limit tells only on which side of the number the result lay.

Consider `O=C(O)CCCN=C(C(=NCCCC(=O)O)c1ccccc1)c1ccccc1`, for which the TGI in assay [1], in assay [2], in assay [3], in assay [4], in assay [5] and in [6] was greater than 100 µM in each case. Besides, the TGI in assay [7], in [8], in assay [9], in assay [10], in assay [11] and in assay [12] was greater than 100 µM throughout. In addition, the TGI in assay [13] and in assay [14] was greater than 100 µM in each case.
On to `O=C(NC(Cc1ccccc1)P(=O)(O)c1ccccc1)OCc1ccccc1` (stereo not drawn), for which the TGI in assay [1], in assay [15], in assay [2], in assay [3], in [4] and in assay [5] was greater than 100 µM each time. The TGI in [6], in [7], in assay [8], in assay [9], in assay [10] and in assay [11] was greater than 100 µM each time. Besides, the TGI in assay [16], in assay [17], in assay [18], in assay [19] and in [14] was greater than 100 µM in each case.
For `CC(C)[C@H]1NC(=O)[C@H]2N=C(O[C@@H]2C)[C@@H]2CCCN2C(=O)[C@H](Cc2ccccc2)NC(=O)[C@@H]2COC(=N2)[C@@H](Cc2ccccc2)NC(=O)[C@@H]2COC1=N2`, the TGI in assay [1], in [15], in assay [3], in [4], in assay [5] and in [6] was greater than 100 µM in each case. For the same compound, the TGI in [7] was greater than 100 µM; in [8], greater than 100 µM; in assay [9], greater than 100 µM; in [10], 75.6 µM; in assay [11], greater than 100 µM; in assay [16], greater than 100 µM. Further, the TGI in assay [17], in [18], in assay [13] and in assay [14] was greater than 100 µM in each case.
Regarding `COC(=O)/C=C/N1CC1`, the TGI in [1], in assay [15], in assay [2], in assay [3], in assay [4] and in assay [5] was greater than 10 µM in each case. Moreover, the TGI in assay [6] was greater than 10 µM; in [7] it was 6.15 µM; in assay [8], greater than 10 µM; in assay [9] it was greater than 10 µM; in [10], greater than 10 µM; in assay [11], greater than 10 µM. The TGI in assay [16], in assay [17], in [18], in assay [13] and in assay [14] was greater than 10 µM throughout.
As for `O=c1cc(-c2cccc(Br)c2)[nH]c2cc3c(cc12)OCO3`, the TGI was greater than 100 µM in assay [1]; 9.73 µM in assay [15]; 24.8 µM in assay [2]; greater than 100 µM in [3]; 26 µM in [4]; 11.4 µM in assay [5]. Moreover, the TGI in assay [6] was greater than 100 µM; in [7], 11.8 µM; in assay [8], 17.3 µM; in [9], 37 µM; in assay [10] it was 10.5 µM; in assay [11], 4.83 µM. Moreover, the TGI in [16] is 18.3 µM; in [17], greater than 100 µM; in [18], greater than 100 µM; in [12] it was 13.8 µM; in [13], 23.1 µM; in assay [14], 24.5 µM.
With `CC(C)[Si](OC1=CCC[C@H]2NC(=O)[C@@H](Cc3ccc([N+](=O)[O-])cc3)[C@@]12C)(C(C)C)C(C)C`, the TGI in [1] was 10.7 µM; in assay [15] it was 5.58 µM; in assay [2] it was 10.5 µM; in [3] it was 13.7 µM; in assay [4], 25.1 µM; in [7], 28.8 µM. In addition, the TGI is 24.4 µM in [8]; 23.8 µM in assay [10]; 27.7 µM in assay [11]; 17.9 µM in assay [16]; 24.4 µM in [17]; 8.19 µM in [18]. The values for the TGI in assay [13] and in assay [14] were 28.1 µM and 26.2 µM, respectively.
On to `O=c1c2cc([N+](=O)[O-])cnc2sn1-c1ccc(Br)cc1`, for which the TGI in [1], in assay [15], in assay [2], in assay [4], in [5] and in assay [6] was greater than 100 µM in each case. Further, the TGI in assay [7] was greater than 100 µM; in assay [8], greater than 100 µM; in assay [9] it was greater than 100 µM; in assay [10], greater than 100 µM; in assay [11], greater than 100 µM; in [16], 22.6 µM. For the same compound, the TGI is 80.7 µM in [17]; 66.6 µM in assay [18]; 54.7 µM in [19]; 73.4 µM in [13]; greater than 100 µM in assay [14].
On to `Cc1ccc(S(=O)(=O)NC(=O)NCC(=O)O)cc1`, for which the TGI in [1], in assay [15], in assay [2], in [3], in assay [4] and in assay [5] was greater than 100 µM each time. Moreover, the TGI in assay [6], in assay [7], in assay [8], in assay [10], in assay [11] and in assay [16] was greater than 100 µM each time. Moreover, the TGI in assay [17], in [18], in assay [19], in [13] and in assay [14] was greater than 100 µM each time.
As for `CC(C)(C)OC(=O)NCCCCC(NC(=O)C(Cc1c[nH]c2ccccc12)NC(=O)OCC1c2ccccc2-c2ccccc21)C(=O)O` (stereo not drawn) (Fmoc-Trp-Lys(Boc)-OH; configuration not given here), the TGI in [1] was greater than 100 µM; in [15], greater than 100 µM; in [2], greater than 100 µM; in assay [3] it was 38.5 µM; in assay [4], 96.2 µM; in assay [5], 31.1 µM. The TGI in assay [6] was 67 µM; in [7], greater than 100 µM; in assay [8], greater than 100 µM; in assay [9] it was greater than 100 µM; in assay [10] it was greater than 100 µM; in assay [11] it was 42.4 µM. Besides, the TGI in assay [17] was 34 µM; in [18], 61 µM; in assay [19], 67 µM; in assay [13], 67.9 µM; in [14], greater than 100 µM.
Regarding `COc1cccc(-c2cc(=O)c3cc(N4CCCC4)ccc3[nH]2)c1`, the TGI in assay [1] is greater than 4.67 µM; in [15] it was 0.00747 µM; in assay [2], 1.42 µM; in assay [3], greater than 8.09 µM; in assay [4], greater than 10 µM; in [6] it was 2.44 µM. Moreover, the TGI is greater than 10 µM in [7]; 0.00128 µM in assay [8]; 0.00347 µM in assay [9]; greater than 10 µM in assay [10]; greater than 10 µM in [11]; less than 0.001 µM in assay [16]. Also, the TGI in assay [17] is less than 0.001 µM; in [18], greater than 10 µM; in [19] it was greater than 10 µM; in [13], 0.598 µM; in [14], greater than 10 µM.
Consider `Cc1ccc2c(c1)C/C(=C\c1ccccc1C(=O)O)C2=O`, for which the TGI in [1], in [15], in assay [2], in assay [3], in assay [4] and in assay [5] was greater than 100 µM throughout. For the same compound, the TGI in [6], in assay [7], in [8], in assay [9], in assay [10] and in assay [11] was greater than 100 µM throughout. Further, the TGI in assay [16], in assay [17], in assay [18], in [19] and in [12] was greater than 100 µM in each case.
Turning to `CC(C)=C=CC(C)(C)NS(=O)(=O)NC(C)(C)C=C=C(C)C`, the TGI in [1], in [15], in [2], in assay [3], in assay [4] and in assay [5] was greater than 100 µM each time. The TGI in [7], in assay [8], in assay [9], in assay [10], in assay [11] and in assay [16] was greater than 100 µM throughout. The TGI in assay [17], in assay [19], in assay [12] and in assay [14] was greater than 100 µM each time.
With `CCOC(=O)c1c(CN2CCOCC2)n(Cc2ccccc2)c2c1cc(O)c1nc(C)c(C)nc12`, the TGI in assay [1] was 34.5 µM; in [15] it was 57.4 µM; in [2] it was greater than 100 µM; in assay [3] it was greater than 100 µM; in [4], greater than 100 µM; in assay [5], 74.3 µM. The TGI is greater than 100 µM in [6]; 53.4 µM in assay [8]; greater than 100 µM in [9]; 32.7 µM in [10]; greater than 100 µM in assay [11]; greater than 100 µM in assay [17]. For the same compound, the TGI in [18] was greater than 100 µM; in assay [12], 55.3 µM; in assay [13], greater than 100 µM; in assay [14] it was greater than 100 µM.
Take `O=Cc1ccc2[nH]c(=O)oc2c1`: the TGI in assay [1], in [2], in assay [3], in assay [4], in [5] and in assay [6] was greater than 100 µM in each case. Further, the TGI in assay [7], in assay [8], in assay [9], in assay [11], in [17] and in assay [18] was greater than 100 µM each time. The TGI in assay [12], in assay [13] and in [14] was greater than 100 µM in each case.
Turning to `Cc1cccc(/C=C2\CCCCCC2=O)c1`, the TGI in assay [15], in assay [2], in [3], in assay [4], in [5] and in [6] was greater than 100 µM each time. The TGI in assay [7], in assay [9], in assay [10], in assay [11], in [16] and in assay [17] was greater than 100 µM throughout. The TGI in assay [18] is 82.8 µM; in [19], greater than 100 µM; in assay [12] it was greater than 100 µM; in assay [13] it was greater than 100 µM; in assay [14], greater than 100 µM.
As to `NC(N)=N/N=C/c1c(-c2ccc(Cl)cc2)nc2n1CCS2`, the TGI in assay [1] was determined as 27.9 µM; in assay [15] it was 10.3 µM; in assay [2] it was 26.9 µM; in assay [3] it was 20 µM; in [4] it was 58.8 µM; in assay [5], 28.5 µM. Besides, the TGI turned out to be 26.9 µM in assay [6]; 27.5 µM in assay [7]; 29.5 µM in [8]; 41 µM in assay [9]; 26.2 µM in [10]; 24.6 µM in assay [11]. Further, the TGI in assay [16] was 28.7 µM; in assay [17] it was greater than 100 µM; in assay [18] it was 16.9 µM; in assay [19], 22.6 µM; in assay [12] it was 26.4 µM; in assay [14], 11.1 µM.
